One assay has as its system osteoclast precursors. The experiment in a line: cells. The class given is cell-based. Conditions: read-out: Osteoclast assay.
Assay [1] has as its target unphosphorylated PDGFRβ kinase (uPDGFRβ, Seq. ID No. 3) (Homo sapiens, UniProt P09619). In words: biochemical.
The target of assay [2] is T1, unphosphorylated c-FMS kinase (uFMS, Seq. ID no. 1) (Homo sapiens, UniProt P07333).
T1 sequence (P07333 538-972): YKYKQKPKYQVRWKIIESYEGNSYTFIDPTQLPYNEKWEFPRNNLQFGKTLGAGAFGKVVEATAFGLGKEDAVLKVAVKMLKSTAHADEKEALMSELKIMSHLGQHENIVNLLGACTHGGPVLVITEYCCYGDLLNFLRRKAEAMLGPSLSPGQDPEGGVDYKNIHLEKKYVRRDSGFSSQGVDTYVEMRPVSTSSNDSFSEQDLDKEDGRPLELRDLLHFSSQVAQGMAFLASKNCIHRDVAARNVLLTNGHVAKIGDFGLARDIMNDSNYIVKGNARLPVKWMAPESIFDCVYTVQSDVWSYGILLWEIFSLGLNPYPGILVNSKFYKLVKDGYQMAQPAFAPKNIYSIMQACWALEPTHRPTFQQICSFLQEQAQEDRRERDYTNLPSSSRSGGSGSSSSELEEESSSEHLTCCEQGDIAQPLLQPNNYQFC
The experiment in a line: biochemical.
Protocol: In this assay, the oxidation of NADH (thus the decrease at A340 nm) was continuously monitored spectrophometrically. The reaction mixture (100 μL) contained FMS (purchased from Millipore) (10 nM), polyE4Y (1 mg/mL), MgCl2 (10 mM), pyruvate kinase (4 units), lactate dehydrogenase (0.7 units), phosphoenol pyruvate (1 mM), NADH (0.28 mM) and ATP (500 μM) in 90 mM Tris buffer containing 0.2% octyl-glucoside and 1% DMSO, pH 7.5. The inhibition reaction was started by mixing serial diluted test compound with the above reaction mixture. The absorption at 340 nm was monitored continuously for 4 hours at 30° C. on Synergy 2 plate reader. The reaction rate was calculated using the 3 to 4 h time frame. Percent inhibition was obtained by comparison of reaction rate with that of a control (i.e. in the absence of test compound). IC50 values were calculated from a series of percent inhibition values determined at a range of inhibitor concentrations using software routines as implemented in the GraphPad Prism software package.

In assay [3] the target is unphosphorylated c-KIT kinase (uKIT, Seq. ID no. 2) (Homo sapiens, UniProt P10721). The experiment in a line: biochemical.
Protocol: uKit kinase (Seq. ID No. 2) Assay
In this assay, the oxidation of NADH (thus the decrease at A340 nm) was continuously monitored spectrophometrically. […] The inhibition reaction was started by mixing serial diluted test compound with the above reaction mixture. The absorption at 340 nm was monitored continuously for 4 hours at 30° C. on Synergy 2 plate reader (BioTech).
The test system of assay [4] is phospho-FMS in THP-1 cells. In words: cells. Conditions: Homo sapiens, THP-1, read-out: pFMS inhibition in THP-1 cells.
A further assay concerns M-NFS-60 cells. In words: cells. Conditions: 67 h, read-out: M-NFS-60 cell proliferation.
The mark [5] stands for this setting: uPDGFRb, enzymatic assay, ATP 500 μM.
[6] abbreviates: uFMS, enzymatic assay, ATP 500 μM.
[7] abbreviates: uKIT, enzymatic assay, ATP 2000 μM.

Each structure is given as a SMILES string.

Sequence of unphosphorylated c-KIT kinase (uKIT, Seq. ID no. 2) (P10721 with tags, fused parts or gaps): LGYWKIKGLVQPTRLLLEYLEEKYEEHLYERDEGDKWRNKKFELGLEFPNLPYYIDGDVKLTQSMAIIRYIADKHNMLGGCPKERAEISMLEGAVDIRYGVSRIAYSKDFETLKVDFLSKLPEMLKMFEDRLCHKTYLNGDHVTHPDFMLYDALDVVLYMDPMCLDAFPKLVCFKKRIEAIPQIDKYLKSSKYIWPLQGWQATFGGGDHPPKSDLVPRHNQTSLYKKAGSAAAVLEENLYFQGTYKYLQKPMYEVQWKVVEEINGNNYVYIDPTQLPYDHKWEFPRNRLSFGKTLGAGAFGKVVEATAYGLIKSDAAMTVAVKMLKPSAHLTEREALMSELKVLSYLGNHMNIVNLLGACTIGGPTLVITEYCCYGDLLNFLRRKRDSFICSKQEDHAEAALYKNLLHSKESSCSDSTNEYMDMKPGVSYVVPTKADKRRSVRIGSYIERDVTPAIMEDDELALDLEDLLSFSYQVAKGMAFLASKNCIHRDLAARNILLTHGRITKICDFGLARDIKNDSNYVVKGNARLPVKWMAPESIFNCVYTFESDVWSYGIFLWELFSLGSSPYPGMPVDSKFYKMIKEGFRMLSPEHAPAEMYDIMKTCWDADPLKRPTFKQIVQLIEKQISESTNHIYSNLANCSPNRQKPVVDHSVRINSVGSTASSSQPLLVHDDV
Sequence of unphosphorylated PDGFRβ kinase (uPDGFRβ, Seq. ID No. 3) (P09619 557-1106): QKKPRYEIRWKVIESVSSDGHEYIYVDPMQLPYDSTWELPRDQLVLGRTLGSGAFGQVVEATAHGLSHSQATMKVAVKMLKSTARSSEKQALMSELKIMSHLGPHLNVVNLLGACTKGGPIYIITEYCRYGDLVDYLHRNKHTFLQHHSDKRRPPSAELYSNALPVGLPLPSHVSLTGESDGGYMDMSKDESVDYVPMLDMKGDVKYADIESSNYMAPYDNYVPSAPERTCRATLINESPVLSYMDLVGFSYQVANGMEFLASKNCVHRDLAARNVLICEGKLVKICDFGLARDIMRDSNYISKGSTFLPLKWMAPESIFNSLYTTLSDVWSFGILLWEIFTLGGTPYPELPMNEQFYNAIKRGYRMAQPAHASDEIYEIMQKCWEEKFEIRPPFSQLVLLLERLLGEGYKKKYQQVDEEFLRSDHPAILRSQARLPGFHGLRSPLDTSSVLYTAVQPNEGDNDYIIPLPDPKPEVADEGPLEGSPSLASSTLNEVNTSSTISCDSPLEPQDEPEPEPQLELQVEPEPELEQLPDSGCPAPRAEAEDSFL
Protocol for M-NFS-60 cells: M-NFS-6 Cell Proliferation Assay
A serial dilution of test compound was dispensed into a 384-well black clear bottom plate (Corning, Corning, N.Y.). Two thousand five hundred cells were added per well in 50 μL complete growth medium. […] IC50 values were calculated from a series of percent inhibition values determined at a range of inhibitor concentrations using software routines as implemented in the GraphPad Prism software package.

For `Cn1cc(-c2cc(Oc3ccc(NC(=O)NC(=O)CCC4(C(F)(F)F)CC4)nc3)ccn2)cn1` [Example 3, N-((5-((2-(1-methyl-1H-pyrazol-4-yl)pyridin-4-yl)oxy)pyridin-2-yl)carbamoyl)-3-(1-(trifluoromethyl)cyclopropyl)propanamide], the IC50 in the assay on osteoclast precursors was under 0.01 µM; in assay [1] (setting [5]), under 10 nM; in assay [2] (setting [6]), under 10 nM; in assay [3] (setting [7]) it was under 10 nM; in assay [4], under 0.01 µM; in the assay on M-NFS-60 cells it was under 0.01 µM.

On to `CC(C)(C)C(=O)NC(=O)Nc1ccc(Oc2ccnc(-c3cncs3)c2)cn1` [Example 125, N-((5-((2-(thiazol-5-yl)pyridin-4-yl)oxy)pyridin-2-yl)carbamoyl)pivalamide], for which the IC50 with osteoclast precursors was under 0.01 µM; in assay [1] (setting [5]), over 1000 nM; in assay [2] (setting [6]), under 10 nM; in assay [3] (setting [7]), over 1000 nM; in assay [4], 0.01 to 0.1 µM; in the assay on M-NFS-60 cells, 0.1 to 1 µM.

As for `Cc1ccc(-c2cc(Oc3ccc(NC(=O)NC(=O)C4CCOCC4)nc3)ccn2)cn1` [Example 103, N-((5-((6′-methyl-[2,3′-bipyridin]-4-yl)oxy)pyridin-2-yl)carbamoyl)tetrahydro-2H-pyran-4-carboxamide], the IC50 was 0.01 to 0.1 µM with osteoclast precursors; 100 to 1000 nM in assay [1] (setting [5]); 10 to 100 nM in assay [2] (setting [6]); over 1000 nM in assay [3] (setting [7]); under 0.01 µM in assay [4]; 0.01 to 0.1 µM in the assay on M-NFS-60 cells.

Take `Cn1cc(-c2cc(Oc3ccc(NC(=O)NC(=O)CC4CCOCC4)nc3)ccn2)cn1` [Example 4, N-((5-((2-(1-methyl-1H-pyrazol-4-yl)pyridin-4-yl)oxy)pyridin-2-yl)carbamoyl)-2-(tetrahydro-2H-pyran-4-yl)acetamide]: the IC50 in the assay on osteoclast precursors is under 0.01 µM; in assay [1] (IC50 (nM) uPDGFRβ, Table 3) it was 168 nM; in assay [1] (setting [5]), 100 to 1000 nM; in assay [2] (IC50 (nM) uFMS, Table 3), 8 nM; in assay [2] (setting [6]) it was under 10 nM; in assay [3] (IC50 (nM) uKIT, Table 3), 165 nM. Besides, the IC50 in assay [3] (setting [7]) was 100 to 1000 nM; in assay [4] it was 0.01 to 0.1 µM; in the assay on M-NFS-60 cells it was under 0.01 µM.

`COC1(C(=O)NC(=O)Nc2ccc(Oc3ccnc(-c4ccc(C)nc4)c3)cn2)CC1` [Example 126, 1-methoxy-N-((5-((6′-methyl-[2,3′-bipyridin]-4-yl)oxy)pyridin-2-yl)carbamoyl)cyclopropanecarboxamide]: the IC50 was under 0.01 µM in the assay on osteoclast precursors; 10 to 100 nM in assay [1] (setting [5]); under 10 nM in assay [2] (setting [6]); 100 to 1000 nM in assay [3] (setting [7]); 0.01 to 0.1 µM in assay [4]; 0.01 to 0.1 µM in the assay with M-NFS-60 cells.

As to `Cc1cc(NC(=O)NC(=O)C(C)(C)C)ncc1Oc1ccnc(-c2cnn(C)c2)c1` [Example 84, N-((4-methyl-5-((2-(1-methyl-1H-pyrazol-4-yl)pyridin-4-yl)oxy)pyridin-2-yl)carbamoyl)pivalamide], the IC50 in the assay on osteoclast precursors is under 0.01 µM; in assay [1] (setting [5]), 100 to 1000 nM; in assay [2] (setting [6]), under 10 nM; in assay [3] (setting [7]), 100 to 1000 nM; in assay [4], under 0.01 µM; in the assay on M-NFS-60 cells it was under 0.01 µM.

Regarding `C=CCn1cc(-c2cc(Oc3ccc(NC(=O)NC(=O)C(C)(C)OC)nc3)ccn2)cn1` [Example 172, N-((5-((2-(1-allyl-1H-pyrazol-4-yl)pyridin-4-yl)oxy)pyridin-2-yl)carbamoyl)-2-methoxy-2-methylpropanamide], the IC50 is under 0.01 µM in the assay on osteoclast precursors; over 1000 nM in assay [1] (setting [5]); under 10 nM in assay [2] (setting [6]); 100 to 1000 nM in assay [3] (setting [7]); under 0.01 µM in assay [4]; 0.01 to 0.1 µM in the assay with M-NFS-60 cells.

Turning to `Cc1cc(NC(=O)NC(=O)C2(C)CCOCC2)nc(C)c1Oc1ccnc(-c2cnn(C)c2)c1` [Example 165, N-((4,6-dimethyl-5-((2-(1-methyl-1H-pyrazol-4-yl)pyridin-4-yl)oxy)pyridin-2-yl)carbamoyl)-4-methyltetrahydro-2H-pyran-4-carboxamide], the IC50 with osteoclast precursors was 0.01 to 0.1 µM; in assay [1] (setting [5]) it was 10 to 100 nM; in assay [2] (setting [6]), under 10 nM; in assay [3] (setting [7]) it was 100 to 1000 nM; in assay [4], 0.01 to 0.1 µM; with M-NFS-60 cells it was 0.01 to 0.1 µM.

Consider `Cn1cc(-c2cc(Oc3ccc(NC(=O)NC(=O)C4CC5(CCC5)C4)nc3)ccn2)cn1` [Example 31, N-((5-((2-(1-methyl-1H-pyrazol-4-yl)pyridin-4-yl)oxy)pyridin-2-yl)carbamoyl)spiro[3.3]heptane-2-carboxamide], for which the IC50 in the assay with osteoclast precursors was under 0.01 µM; in assay [1] (setting [5]), under 10 nM; in assay [2] (setting [6]), under 10 nM; in assay [3] (setting [7]), under 10 nM; in assay [4], 0.01 to 0.1 µM; with M-NFS-60 cells, under 0.01 µM.

Regarding `CC(C)C(=O)NC(=O)Nc1ccc(Oc2ccnc(-c3ccc(C4CCN(C)CC4)cc3)c2)cn1` [Example 75, N-((5-((2-(4-(1-methylpiperidin-4-yl)phenyl)pyridin-4-yl)oxy)pyridin-2-yl)carbamoyl)isobutyramide], the IC50 in the assay with osteoclast precursors is under 0.01 µM; in assay [1] (setting [5]) it was 100 to 1000 nM; in assay [2] (setting [6]), under 10 nM; in assay [3] (setting [7]), 100 to 1000 nM; in assay [4], under 0.01 µM; in the assay on M-NFS-60 cells it was under 0.01 µM.

Consider `Cn1cc(-c2cc(Oc3ccc(NC(=O)NC(=O)C(C)(C)C(F)(F)F)nc3)ccn2)cn1` [Example 35, 3,3,3-trifluoro-2,2-dimethyl-N-((5-((2-(1-methyl-1H-pyrazol-4-yl)pyridin-4-yl)oxy)pyridin-2-yl)carbamoyl)propanamide], for which the IC50 in the assay on osteoclast precursors was 0.01 to 0.1 µM; in assay [1] (setting [5]), 10 to 100 nM; in assay [2] (setting [6]) it was under 10 nM; in assay [3] (setting [7]), 100 to 1000 nM; in assay [4], 0.01 to 0.1 µM; in the assay on M-NFS-60 cells, 0.01 to 0.1 µM.

Turning to `Cn1cc(-c2cc(Oc3ccc(NC(=O)NC(=O)CC(C)(C)C(F)(F)F)nc3)ccn2)cn1` [Example 48, 4,4,4-trifluoro-3,3-dimethyl-N-((5-((2-(1-methyl-1H-pyrazol-4-yl)pyridin-4-yl)oxy)pyridin-2-yl)carbamoyl)butanamide], the IC50 is 0.01 to 0.1 µM in the assay on osteoclast precursors; under 10 nM in assay [2] (setting [6]); under 10 nM in assay [3] (setting [7]); under 0.01 µM in assay [4]; 0.01 to 0.1 µM in the assay on M-NFS-60 cells.

On to `Cn1cc(-c2cc(Oc3ccc(NC(=O)NC(=O)[C@H]4C[C@](C)(F)C4)nc3)ccn2)cn1` [Example 1, trans-3-fluoro-3-methyl-N-((5-((2-(1-methyl-1H-pyrazol-4-yl)pyridin-4-yl)oxy)pyridin-2-yl)carbamoyl)cyclobutanecarboxamide], for which the IC50 with osteoclast precursors is under 0.01 µM; in assay [1] (setting [5]) it was 10 to 100 nM; in assay [2] (setting [6]) it was under 10 nM; in assay [4] it was under 0.01 µM; in the assay on M-NFS-60 cells, under 0.01 µM.

As to `Cn1cc(-c2cc(Oc3ccc(NC(=O)NC(=O)C4(C)CC4)nc3)ccn2)cn1` [Example 52, 1-methyl-N-((5-((2-(1-methyl-1H-pyrazol-4-yl)pyridin-4-yl)oxy)pyridin-2-yl)carbamoyl)cyclopropanecarboxamide], the IC50 with osteoclast precursors is under 0.01 µM; in assay [1] (setting [5]) it was over 1000 nM; in assay [3] (setting [7]) it was 100 to 1000 nM; in assay [4] it was under 0.01 µM.

Regarding `Cc1cc(-c2cc(Oc3ccc(NC(=O)NC(=O)C(C)(C)C)nc3C)ccn2)on1` [Example 76, N-((6-methyl-5-((2-(3-methylisoxazol-5-yl)pyridin-4-yl)oxy)pyridin-2-yl)carbamoyl)pivalamide], the IC50 in the assay on osteoclast precursors was 0.01 to 0.1 µM; in assay [1] (setting [5]), over 1000 nM; in assay [3] (setting [7]), over 1000 nM; in assay [4], under 0.01 µM.

These data come from patent US9382228B2 (priority 2013, dated 2016).
